Target: T1, human GPR 119 receptor (Homo sapiens, UniProt Q8TDV5)
T1 construct: expressed in transfected cells
T1 sequence (Q8TDV5 1-335): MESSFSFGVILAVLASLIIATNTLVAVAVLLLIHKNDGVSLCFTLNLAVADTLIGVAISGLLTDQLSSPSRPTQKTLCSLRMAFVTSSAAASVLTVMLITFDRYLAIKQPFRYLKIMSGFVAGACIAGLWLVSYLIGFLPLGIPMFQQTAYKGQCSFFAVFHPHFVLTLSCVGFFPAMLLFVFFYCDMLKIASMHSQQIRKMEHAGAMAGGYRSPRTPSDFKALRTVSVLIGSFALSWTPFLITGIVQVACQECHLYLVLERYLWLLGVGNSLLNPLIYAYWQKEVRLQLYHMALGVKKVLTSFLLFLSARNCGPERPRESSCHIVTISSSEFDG
Experiment: cAMP assay in stable cell line expressing recombinant human GPR 119 receptor
Format: cell-based
Conditions: DMSO = 1
From the text: A stable cell line expressing recombinant human GPR 119 receptor was established and used to investigate the efficacy of the compounds of the invention based on the intracellular levels of cyclic AMP (cAMP) using commercially available cAMP kits.

Fold increase in cyclic AMP with respective to DMSO (10 nM compound) [fold]	Fold increase in cyclic AMP with respective to DMSO (100 nM compound) [fold]	Fold increase in cyclic AMP with respective to DMSO (1 uM compound) [fold]	SMILES
1.31	2.28	4.11	CC(C)COC(=O)N1CCC(Oc2cc(Oc3cccc(/C=C4\SC(=O)NC4=O)c3)ncn2)CC1 [Example 54, (Z)-Isobutyl 4-((6-(3-((2,4-dioxothiazolidin-5-ylidene)methyl)phenoxy)pyrimidin-4-yl)oxy)piperidine-1-carboxylate]
1.31	1.92	4.24	CC(C)(C)OC(=O)N1CCC(Oc2cc(Oc3cccc(/C=C4\SC(=O)NC4=O)c3)ncn2)CC1 [Example 19, (Z)-tert-Butyl 4-((6-(3-((2,4-dioxothiazolidin-5-ylidene)methyl)phenoxy)pyrimidin-4-yl)oxy)piperidine-1-carboxylate]
0.83	1.36	2.72	CC(C)COC(=O)N1CCC(Oc2cc(Oc3cccc(/C=C4\SC(=O)NC4=O)c3)ncn2)CC1 [Example 33, (Z)-Isobutyl 4-((6-(3-((2,4-dioxothiazolidin-5-ylidene)methyl)phenoxy)pyrimidin-4-yl)oxy)piperidine-1-carboxylate]
1.07	1.11	2.27	CC(C)(C)OC(=O)N1CCC(Oc2cc(Oc3ccc(/C=C4\SC(=O)N(S(C)(=O)=O)C4=O)cc3)ncn2)CC1 [Example 24, (Z)-tert-Butyl 4-((6-(4-((3-(methylsulfonyl)-2,4-dioxothiazolidin-5-ylidene)methyl)phenoxy)pyrimidin-4-yl)oxy)piperidine-1-carboxylate]
2.29	3.59	7.4	O=C1NC(=O)/C(=C/c2ccc(Oc3cc(OC4CCN(C(=O)OCc5ccccc5)CC4)ncn3)cc2)S1 [Example 30, (Z)-Benzyl 4-((6-(4-((2,4-dioxothiazolidin-5-ylidene)methyl)phenoxy)pyrimidin-4-yl)oxy)piperidine-1-carboxylate]
0.99	1.79	3.59	CC(C)COC(=O)N1CCC(Oc2cc(Oc3ccc(/C=C4\SC(=O)NC4=O)cc3)ncn2)CC1 [Example 53, (Z)-Isobutyl 4-((6-(4-((2,4-dioxothiazolidin-5-ylidene)methyl)phenoxy)pyrimidin-4-yl)oxy)piperidine-1-carboxylate]
0.92	1.06	2.35	COC(=O)N1CCC(Oc2ncnc(Oc3cccc(/C=C4\SC(=O)NC4=O)c3)c2C)CC1 [Example 21, (Z)-Methyl 4-((6-(3-((2,4-dioxothiazolidin-5-ylidene)methyl)phenoxy)-5-methylpyrimidin-4-yl)oxy)piperidine-1-carboxylate]
1.32	2.86	4.56	Cc1c(Oc2cccc(/C=C3\SC(=O)NC3=O)c2)ncnc1OC1CCN(c2ncccn2)CC1 [Example 28, (Z)-5-(3-((5-Methyl-6-((1-(pyrimidin-2-yl)piperidin-4-yl)oxy)pyrimidin-4-yl)oxy)benzylidene)thiazolidine-2,4-dione]
1.38	2.89	4.79	Cc1c(Oc2cccc(/C=C3\SC(=O)NC3=O)c2)ncnc1OC1CCN(Cc2ccccc2)CC1 [Example 27, (Z)-5-(3-((6-((1-Benzylpiperidin-4-yl)oxy)-5-methylpyrimidin-4-yl)oxy)benzylidene)thiazolidine-2,4-dione]
0.34	0.67	1.64	Cc1c(Oc2ccc(/C=C3\SC(=O)NC3=O)cc2)ncnc1OC1CCN(Cc2ccccc2)CC1 [Example 38, (Z)-5-(4-((6-((1-Benzylpiperidin-4-yl)oxy)-5-methylpyrimidin-4-yl)oxy)benzylidene)thiazolidine-2,4-dione]
0.73	1.09	2.22	CC(C)COC(=O)N1CCC(Oc2cc(Oc3ccc(/C=C4\SC(=O)NC4=O)cc3)ncn2)CC1 [Example 34, (Z)-Isobutyl 4-((6-(4-((2,4-dioxothiazolidin-5-ylidene)methyl)phenoxy)pyrimidin-4-yl)oxy)piperidine-1-carboxylate]
0.64	0.88	2.02	CCc1cnc(N2CCC(Oc3ncnc(Oc4ccc(/C=C5\SC(=O)N(S(C)(=O)=O)C5=O)cc4)c3C)CC2)nc1 [Example 3, (2)-5-(4-((6-((1-(5-Ethylpyrimidin-2-yl)piperidin-4-yl)oxy)-5-methylpyrimidin-4-yl)oxy)benzylidene)-3-(methylsulfonyl)thiazolidine-2,4-dione]
1.05	1.33	2.88	CCOC(=O)CN1C(=O)S/C(=C\c2cccc(Oc3ncnc(OC4CCN(C(=O)OC(C)(C)C)CC4)c3C)c2)C1=O [Example 45, (Z)-tert-Butyl 4-((6-(3-((3-(2-ethoxy-2-oxoethyl)-2,4-dioxothiazolidin-5-ylidene)methyl)phenoxy)-5-methylpyrimidin-4-yl)oxy)piperidine-1-carboxylate]
1.58	1.89	5.45	CC(=O)CN1C(=O)S/C(=C\c2ccc(Oc3cc(OC4CCN(C(=O)OC(C)(C)C)CC4)ncn3)cc2)C1=O [Example 46, (Z)-tert-Butyl 4-((6-(4-((2,4-dioxo-3-(2-oxopropyl)thiazolidin-5-ylidene)methyl)phenoxy)pyrimidin-4-yl)oxy)piperidine-1-carboxylate]
1.72	2.19	3.28	Cc1c(Oc2ccc(/C=C3\SC(=O)NC3=O)cc2)ncnc1OC1CCN(C(=O)OCC(C)C)CC1 [Example 15, (Z)-iso-Butyl 4-((6-(4-((2,4-dioxothiazolidin-5-ylidene)methyl)phenoxy)-5-methylpyrimidin-4-yl)oxy)piperidine-1-carboxylate]
1.15	1.94	3.36	CCOC(=O)N1CCC(Oc2cc(Oc3ccc(/C=C4\SC(=O)NC4=O)cc3)ncn2)CC1 [Example 52, (Z)-Ethyl 4-((6-(4-((2,4-dioxothiazolidin-5-ylidene)methyl)phenoxy)pyrimidin-4-yl)oxy)piperidine-1-carboxylate]
1.40	2.40	6.61	CCOC(=O)N1CCC(Oc2ncnc(Oc3ccc(/C=C4\SC(=O)NC4=O)cc3)c2C)CC1 [Example 14, (Z)-Ethyl 4-((6-(4-((2,4-dioxothiazolidin-5-ylidene)methyl)phenoxy)-5-methylpyrimidin-4-yl)oxy)piperidine-1-carboxylate]
1.73	4.66	5.74	Cc1c(Oc2cccc(/C=C3\SC(=O)NC3=O)c2)ncnc1OC1CCN(C(=O)OCc2ccccc2)CC1 [Example 50, (Z)-Benzyl 4-((6-(3-((2,4-dioxothiazolidin-5-ylidene)methyl)phenoxy)-5-methylpyrimidin-4-yl)oxy)piperidine-1-carboxylate]
0.94	1.27	1.98	O=C1NC(=O)/C(=C/c2ccc(Oc3cc(OC4CCN(c5ncccn5)CC4)ncn3)cc2)S1 [Example 43, (Z)-5-(4-((6-((1-(Pyrimidin-2-yl)piperidin-4-yl)oxy)pyrimidin-4-yl)oxy)benzylidene)thiazolidine-2,4-dione]

SMILES	Fold increase in cyclic AMP with respective to DMSO (10 nM compound) [fold]	Fold increase in cyclic AMP with respective to DMSO (100 nM compound) [fold]	Fold increase in cyclic AMP with respective to DMSO (1 uM compound) [fold]
O=C1NC(=O)/C(=C/c2cccc(Oc3cc(OC4CCN(C(=O)OCc5ccccc5)CC4)ncn3)c2)S1 [Example 29, (Z)-Benzyl 4-((6-(3-((2,4-dioxothiazolidin-5-ylidene)methy 1)phenoxy)pyrimidin-4-yl)oxy)piperidine-1-carboxylate]	2.09	3.66	8.17
CCN1C(=O)S/C(=C\c2ccc(Oc3cc(OC4CCN(C(=O)OC(C)(C)C)CC4)ncn3)cc2)C1=O [Example 31, (Z)-tert-Butyl 4-((6-(4-((3-ethyl-2,4-doxothiazolidin-5-ylidene)methyl)phenoxy)pyrimidin-4-yl)oxy)piperidine-1-carboxylate]	1.06	2.27	3.66

Source: patent US8785463B2, “GPR 119 agonists” (Cadila Healthcare Limited, priority 2010, dated 2014)
